What was measured:
Settings in all cases: 72 h
Caco-2 [1] = assay: cell viability relative to DMSO; higher = less toxic
Calu-3 [2] = assay: as above
HepG2 [3] = assay: as above
U2OS [4] = assay: as above
Vero E6 [5] = assay: as above
Calu-3 [6] = assay: relative viability EC50 (midpoint between 100% and the lowest measured viability); higher = less toxic
U2OS [7] = assay: as above
Vero E6 [8] = assay: as above
Caco-2 [9] = assay: drug sensitivity score (DSS) for viability; higher = more toxic; extreme values may be limits of the assay
Calu-3 [10] = assay: as above
HepG2 [11] = assay: as above
U2OS [12] = assay: as above
Vero E6 [13] = assay: as above
Caco-2 [14] = assay: relative viability EC50 (midpoint between 100% and the lowest measured viability); higher = less toxic
HepG2 [15] = assay: as above

Row | SMILES | cell viability (Caco-2 [1]; 1 nM) | cell viability (Caco-2 [1]; 10 nM) | cell viability (Caco-2 [1]; 100 nM) | cell viability (Caco-2 [1]; 1000 nM) | cell viability (Caco-2 [1]; 10000 nM) | cell viability (Calu-3 [2]; 1 nM) | cell viability (Calu-3 [2]; 10 nM) | cell viability (Calu-3 [2]; 100 nM) | cell viability (Calu-3 [2]; 1000 nM) | cell viability (Calu-3 [2]; 10000 nM) | cell viability (HepG2 [3]; 1 nM) | cell viability (HepG2 [3]; 10 nM) | cell viability (HepG2 [3]; 100 nM) | cell viability (HepG2 [3]; 1000 nM) | cell viability (HepG2 [3]; 10000 nM) | cell viability (U2OS [4]; 1 nM) | cell viability (U2OS [4]; 10 nM) | cell viability (U2OS [4]; 100 nM) | cell viability (U2OS [4]; 1000 nM) | cell viability (U2OS [4]; 10000 nM) | cell viability (Vero E6 [5]; 1 nM) | cell viability (Vero E6 [5]; 10 nM) | cell viability (Vero E6 [5]; 100 nM) | cell viability (Vero E6 [5]; 1000 nM) | cell viability (Vero E6 [5]; 10000 nM) | relative viability EC50 (Calu-3 [6]) | relative viability EC50 (U2OS [7]) | relative viability EC50 (Vero E6 [8]) | drug sensitivity score (Caco-2 [9]) | drug sensitivity score (Calu-3 [10]) | drug sensitivity score (HepG2 [11]) | drug sensitivity score (U2OS [12]) | drug sensitivity score (Vero E6 [13]) | relative viability EC50 (Caco-2 [14]) | relative viability EC50 (HepG2 [15])
1 | O=C(CC(c1ccccc1)c1ccccc1)N1CCN(C(c2ccccc2)c2ccccc2)CC1 [Z160] | 99.9% | 103% | 97.1% | 92.9% | 67.8% | 104% | 92.8% | 104% | 93.9% | 114% | 88.7% | 104% | 88.5% | 95.6% | 57.7% | 101% | 99% | 99.1% | 97.2% | 88.6% | 93.7% | 99.1% | 94.9% | 99.8% | 100% | > 10 µM | > 10 µM | > 10 µM | 2.6 | 0 | 2.9 | 0.1 | 0 |  | 
2 | CCC(=O)c1ccc(OCC(O)CN2CCN(c3ccccc3)CC2)cc1 (centres undefined) [centpropazine] | 96.8% | 92.8% | 94.6% | 93.1% | 98.4% |  |  |  |  |  | 120% | 112% | 106% | 101% | 90% | 100% | 103% | 99.3% | 106% | 97.3% |  |  |  |  |  |  | > 10 µM |  | 0 |  | 0 | 0 |  | > 10 µM | > 10 µM
3 | C=C(c1ccccc1OCc1cccc(Cl)c1)n1ccnc1 [croconazole] | 102% | 104% | 90.9% | 87.8% | 69.6% | 94.4% | 104% | 97.5% | 93.1% | 92.1% | 102% | 101% | 102% | 110% | 88% | 96.2% | 104% | 93.2% | 103% | 90% | 102% | 97% | 112% | 107% | 105% | > 10 µM | > 10 µM | > 10 µM | 2.5 | 0 | 0 | 0 | 0 |  | > 10 µM
4 | O=C(C(c1ccccc1)c1ccccc1)N1CCN(CC(O)COc2cccc3ncccc23)CC1 (centres undefined) [dofequidar] | 102% | 99.9% | 94.7% | 103% | 86.3% | 90.5% | 97.8% | 109% | 129% | 104% | 95.7% | 104% | 105% | 105% | 102% | 97.4% | 102% | 94.2% | 102% | 93.8% |  |  |  |  |  | > 10 µM | > 10 µM |  | 0.1 | 0 | 0 | 0 |  | > 10 µM | > 10 µM
5 | CN1CCN(c2ccc3nc(-c4c(N)c5c(F)cccc5[nH]c4=O)[nH]c3c2)CC1 [dovitinib] | 98.4% | 101% | 87.5% | 85.7% | 61.8% | 93.8% | 97.7% | 98.6% | 93.7% | 81.9% | 115% | 96.8% | 102% | 60.8% | 28.8% | 99% | 99.5% | 93.5% | 97.8% | 42.3% | 97.4% | 96.5% | 99.6% | 63.2% | 42.1% | > 10 µM | 2.88 µM | 0.794 µM | 3.6 | 0.9 | 8.7 | 3.4 | 7.5 |  | 0.923 µM
6 | C[C@H]1O[C@@H](n2cc(F)c(=O)[nH]c2=O)[C@H](O)[C@@H]1O [doxifluridine] | 82.5% | 106% | 93.3% | 99.3% | 65.6% | 98.6% | 116% | 91.3% | 98.9% | 90.9% | 96.6% | 96.1% | 76.3% | 108% | 56.6% | 99.9% | 99.4% | 100% | 101% | 90.6% | 108% | 96.1% | 103% | 105% | 87.5% | > 10 µM | > 10 µM | > 10 µM | 1.7 | 0 | 1.8 | 0 | 0 |  | 
7 | CCOC(CN1CCN(CC(C)C(=O)c2ccccc2)CC1)c1ccccc1 (centres undefined) [eprazinone] | 102% | 98.9% | 110% | 95.4% | 98.2% | 96% | 96.9% | 95.6% | 93% | 90.8% | 111% | 96.7% | 102% | 98.9% | 99.6% | 98.8% | 95.8% | 95.8% | 95.2% | 98.7% |  |  |  |  |  | > 10 µM | > 10 µM |  | 0 | 0 | 0 | 0 |  | > 10 µM | > 10 µM
8 | Oc1ccc([C@H]2COc3cc(O)ccc3C2)cc1 [equol] |  |  |  |  |  | 97.2% | 111% | 99.2% | 92.6% | 91.2% | 94.2% | 105% | 110% | 94.8% | 97.3% | 98.5% | 103% | 97.9% | 102% | 99.6% | 98.6% | 102% | 96.2% | 95.5% | 96.6% | > 10 µM | > 10 µM | > 10 µM |  | 0 | 0 | 0 | 0 |  | > 10 µM
9 | O=C(/C=C/c1c(C(=O)O)[nH]c2cc(Cl)cc(Cl)c12)Nc1ccccc1 [gavestinel] | 102% | 104% | 91% | 99.6% | 104% | 90.4% | 98.8% | 89.3% | 99.2% | 107% | 94.5% | 112% | 92.9% | 105% | 101% | 101% | 99.2% | 100% | 101% | 100% |  |  |  |  |  | > 10 µM | > 10 µM |  | 0 | 0 | 0 | 0 |  | > 10 µM | > 10 µM
10 | c1coc(CNc2ncnc3[nH]cnc23)c1 [kinetin] | 111% | 104% | 106% | 98.9% | 96.6% | 95.7% | 100% | 101% | 98.4% | 99.3% | 110% | 108% | 99% | 98.7% | 109% |  |  |  |  |  |  |  |  |  |  | > 10 µM |  |  | 0 | 0 | 0 |  |  | > 10 µM | > 10 µM
11 | Cc1ccc(NC(=O)C2(c3ccc4c(c3)OC(F)(F)O4)CC2)nc1-c1cccc(C(=O)O)c1 [lumacaftor] | 106% | 103% | 106% | 92.3% | 93.8% | 113% | 103% | 101% | 98.6% | 108% |  |  |  |  |  |  |  |  |  |  |  |  |  |  |  | > 10 µM |  |  | 0 | 0 |  |  |  | > 10 µM | 
12 | O=C(O)C[CH2][Ge](=[O])[O][Ge](=[O])[CH2]CC(=O)O [propagermanium] | 108% | 91.4% | 106% | 93.4% | 100% | 102% | 105% | 95.6% | 99.2% | 105% | 104% | 106% | 95.3% | 96.8% | 88% | 101% | 101% | 99.1% | 97.1% | 97.5% |  |  |  |  |  | > 10 µM | > 10 µM |  | 0 | 0 | 0 | 0 |  | > 10 µM | > 10 µM
13 | O=c1ccc2cc3ccoc3cc2o1 [psoralen] | 96.6% | 104% | 101% | 104% | 97.9% |  |  |  |  |  | 110% | 107% | 110% | 96.5% | 105% | 101% | 104% | 97.8% | 102% | 98.9% |  |  |  |  |  |  | > 10 µM |  | 0 |  | 0 | 0 |  | > 10 µM | > 10 µM
14 | c1nc2c(NC3CCCCC3)nc(Nc3ccc(N4CCOCC4)cc3)nc2[nH]1 [reversine] | 99.3% | 93.6% | 97.8% | 84.1% | 35.2% | 102% | 92.4% | 103% | 100% | 73.4% | 101% | 89.9% | 89.2% | 46.3% | 27.6% | 99.9% | 102% | 99.4% | 63.6% | 23.1% | 104% | 98.1% | 103% | 65.1% | 58% |  | 1.04 µM |  | 6 | 1 | 11.5 | 8.9 | 6.3 | 1.57 µM | 0.401 µM
15 | CN1CCN(c2c(F)cc3c(=O)c(C(=O)O)cn4c3c2SCC4)CC1 [rufloxacin] | 95.1% | 105% | 93.9% | 91.7% | 73.8% | 92.1% | 103% | 97.5% | 84.4% | 101% | 98.9% | 99.5% | 104% | 103% | 92.2% | 99.8% | 100% | 94.7% | 104% | 96.8% | 99.9% | 101% | 96.4% | 101% | 95.7% | > 10 µM | > 10 µM | > 10 µM | 1.7 | 0 | 0 | 0 | 0 |  | > 10 µM
16 | COc1cnc(NS(=O)(=O)c2ccc(N)cc2)nc1 [sulfameter] | 106% | 103% | 92.7% | 103% | 98.8% | 97.2% | 96.4% | 99.3% | 101% | 105% | 102% | 110% | 97% | 99.6% | 106% | 96.2% | 101% | 94.3% | 101% | 97.2% |  |  |  |  |  | > 10 µM | > 10 µM |  | 0 | 0 | 0 | 0 |  | > 10 µM | > 10 µM
17 | CCCSc1nc(N[C@@H]2C[C@H]2c2ccc(F)c(F)c2)c2nnn([C@@H]3C[C@H](OCCO)[C@@H](O)[C@H]3O)c2n1 [ticagrelor] | 98.1% | 99.5% | 98% | 97.1% | 86.5% | 99.9% | 99.6% | 101% | 103% | 104% | 107% | 112% | 95.9% | 99.1% | 89.5% | 104% | 96.3% | 101% | 103% | 96.3% |  |  |  |  |  | > 10 µM | > 10 µM |  | 0.3 | 0 | 0 | 0 |  | > 10 µM | > 10 µM
